Assay results as given in US8383627B2, “Crystalline polymorph of doxazosin mesylate (form IV) and process for preparation thereof” (CIPLA Limited, priority 2007, dated 2013).
Where a name gives a salt, the structure may show the parent alone.

Experiment: Comparative intrinsic dissolution study
Type: physicochemical
Details: for % Release of Doxazosin Mesylate: 50 mg pellet, 900 ml 0.01N HCl, 37±0.5° C., paddle 50 rpm
Protocol: To measure the intrinsic dissolution of the doxazosin mesylate Form IV, Form M and Form D, samples were measured to compare the influence of the different parameter settings. At appropriate time intervals, an automated sample collector removes aliquots from dissolution medium for analysis. The time interval for sampling can vary, for example, from 2 to 30 minutes, depending on the properties of the drug and dissolution medium used. Suitable dissolution equipment for these operations include LAB INDIA DISSO 2000.
A tableting mixture (50 mg) comprising solely doxazosin mesylate (i.e. with no excipients) was prepared and compressed to a pellet using a manual hand press operating at a compression pressure of 5 tones for 5 minutes.
In-vitro dissolutions studies were performed on the 50 mg pellet in a LAB INDIA DISSO 2000.
The pellet was fixed in a PFTE holder, such that only the pellet surface came into contact with the dissolution medium. The PFTE loaded holder was placed in the dissolution vessel containing 900 ml of 0.01N HCl at 37±0.5° C. Three pellets were measured for each run of the design of the experiments. Stirring was performed with a paddle rotating at 50 rpm. The dissolution was followed up to 1440 min and the concentration of active ingredient, doxazosin mesylate, dissolved in the test medium was determined by removing samples of 10 ml at the specified time.
The concentration of doxazosin mesylate was quantified by HPLC UV method at a maximum wavelength of 245 nm under conditions as specified: • Mobile Phase: 450:450:100:: Buffer:MeOH:Acetonitrile • Buffer: 0.3% v/v Diethylamine. The pH adjusted to 2.5 with orthophosphoric acid • Column: Inersil ODS 15 cm • Flow: 1.0 ml/min
The percentage of doxazosin mesylate released was plotted against time. The intrinsic dissolution rate was derived from the slope of this curve.

COc1cc2nc(N3CCN(C(=O)C4COc5ccccc5O4)CC3)nc(N)c2cc1OC (stereo not drawn) [Form M, doxazosin mesylate]
% Release of Doxazosin Mesylate (5 minutes, listed as Form -M): 1.5% | % Release of Doxazosin Mesylate (15 minutes, listed as Form -M): 2.8% | % Release of Doxazosin Mesylate (30 minutes, listed as Form -M): 5.0% | % Release of Doxazosin Mesylate (45 minutes, listed as Form -M): 6.5% | % Release of Doxazosin Mesylate (60 minutes, listed as Form -M): 8.1% | % Release of Doxazosin Mesylate (120 minutes, listed as Form -M): 14.1% | % Release of Doxazosin Mesylate (180 minutes, listed as Form -M): 20.8% | % Release of Doxazosin Mesylate (240 minutes, listed as Form -M): 26.5% | % Release of Doxazosin Mesylate (360 minutes, listed as Form -M): 39.5% | % Release of Doxazosin Mesylate (480 minutes, listed as Form -M): 50.2% | % Release of Doxazosin Mesylate (600 minutes, listed as Form -M): 58.8% | % Release of Doxazosin Mesylate (720 minutes, listed as Form -M): 67.0% | % Release of Doxazosin Mesylate (720 minutes, listed as form M): 67.0% | % Release of Doxazosin Mesylate (900 minutes, listed as Form -M): 74.9% | % Release of Doxazosin Mesylate (1080 minutes, listed as Form -M): 78.0% | % Release of Doxazosin Mesylate (1260 minutes, listed as Form -M): 79.5%

COc1cc2nc(N3CCN(C(=O)C4COc5ccccc5O4)CC3)nc(N)c2cc1OC (stereo not drawn) [Form D, doxazosin mesylate]
% Release of Doxazosin Mesylate (5 minutes, listed as Form -D): 1.8% | % Release of Doxazosin Mesylate (15 minutes, listed as Form -D): 3.5% | % Release of Doxazosin Mesylate (30 minutes, listed as Form -D): 6.1% | % Release of Doxazosin Mesylate (45 minutes, listed as Form -D): 8.8% | % Release of Doxazosin Mesylate (60 minutes, listed as Form -D): 10.7% | % Release of Doxazosin Mesylate (120 minutes, listed as Form -D): 18.5% | % Release of Doxazosin Mesylate (180 minutes, listed as Form -D): 27.0% | % Release of Doxazosin Mesylate (240 minutes, listed as Form -D): 32.3% | % Release of Doxazosin Mesylate (360 minutes, listed as Form -D): 51.0% | % Release of Doxazosin Mesylate (480 minutes, listed as Form -D): 65.1% | % Release of Doxazosin Mesylate (600 minutes, listed as Form -D): 72.7% | % Release of Doxazosin Mesylate (720 minutes): 74.5% | % Release of Doxazosin Mesylate (720 minutes, listed as Form -D): 74.5% | % Release of Doxazosin Mesylate (900 minutes, listed as Form -D): 76.0% | % Release of Doxazosin Mesylate (1080 minutes, listed as Form -D): 75.8% | % Release of Doxazosin Mesylate (1260 minutes, listed as Form -D): 75.6%

COc1cc2nc(N3CCN(C(=O)C4COc5ccccc5O4)CC3)nc(N)c2cc1OC (stereo not drawn) [Form IV, 1-(4-amino-6,7-dimethoxy-2-quinazolinyl)-4-(2,3-dihydro-1,4-benzodioxin-2-yl)carbonyl piperazine monomethanesulfonate]
% Release of Doxazosin Mesylate (5 minutes, monomethanesulfonate): 1.6% | % Release of Doxazosin Mesylate (15 minutes, monomethanesulfonate): 3.6% | % Release of Doxazosin Mesylate (30 minutes, monomethanesulfonate): 6.6% | % Release of Doxazosin Mesylate (45 minutes, monomethanesulfonate): 9.5% | % Release of Doxazosin Mesylate (60 minutes, monomethanesulfonate): 12.0% | % Release of Doxazosin Mesylate (120 minutes, monomethanesulfonate): 21.8% | % Release of Doxazosin Mesylate (180 minutes, monomethanesulfonate): 34.5% | % Release of Doxazosin Mesylate (240 minutes, monomethanesulfonate): 45.7% | % Release of Doxazosin Mesylate (360 minutes, monomethanesulfonate): 66.2% | % Release of Doxazosin Mesylate (480 minutes, monomethanesulfonate): 77.4% | % Release of Doxazosin Mesylate (600 minutes, monomethanesulfonate): 80.0% | % Release of Doxazosin Mesylate (720 minutes, listed as Form -IV, monomethanesulfonate): 81.1% | % Release of Doxazosin Mesylate (720 minutes, monomethanesulfonate): 81.1% | % Release of Doxazosin Mesylate (900 minutes, monomethanesulfonate): 79.7% | % Release of Doxazosin Mesylate (1080 minutes, monomethanesulfonate): 79.2% | % Release of Doxazosin Mesylate (1260 minutes, monomethanesulfonate): 77.6% | higher dissolution rate compared with known Form D (at 30 minutes): 8% | higher dissolution rate compared with known Form D (at 60 minutes): 10.84% | higher dissolution rate compared with known Form D (at 120 minutes): 15.14% | higher dissolution rate compared with known Form D (at 180 minutes): 21.74% | higher dissolution rate compared with known Form D (at 240 minutes): 29.33% | rate of dissolution (compared with known forms, Form M and Form D): superior rate of dissolution
